We go through 1 compound from US20060211081A1, “Sec14 as an antifungal target” (priority 2002, published 2006).

The subject of this assay is C. albicans conditional mutants (SEC14 gene under tetracycline repressible promoter). Briefly: Murine model of systemic infection with C. albicans conditional mutants, kidney burdens. In kind it is in vivo, BALB/c mice. As to conditions: +DOX group (2 mg/ml in 5% sucrose drinking water), at the start of the study and at day 28; 1×10^6 CFU/mouse i.v. Here is the method: To further validate the essential nature of the SEC14 gene, the conditional mutants of C. albicans strains (as described in Example 4, section 4.1), wherein the SEC14 gene is under the control of a tetracycline repressible promoter, may be tested to determine whether they are attenuated in an immuno-competent murine model of infection (Ghannoum, et al, 1995) as follows:
Initially the organisms were grown in the absence of DOX, since under these conditions they would express the SEC14 gene. These organisms were then used to inoculate two groups of 12 of mice. One group wss treated with DOX, in which expression of the SEC14 gene was repressed, and the second group of mice was treated with water (control) wherein the gene continued to be expressed. The mice used were single sex BALB/c mice, Harlan, 4 weeks old and weighing between 19-22 g.
Infective doses of C. albicans were injected into the tail vein. The inocula were from saline-washed fresh stationary phase cultures grown in NGY medium [0.1% neopeptone, 0.4% glucose, 0.1% yeast extract] for 18-24 h at 30° C. […]
Animals were fed food and water ad libitum throughout the course of experiment. […] Differences between the effects of C. albicans with the SEC14 gene active (−DOX) or repressed (+DOX) in vivo were monitored by mouse survival, kidney burdens of viable fungi, and changes in body weight relative to baseline. […]

As to `C[C@H]1c2cccc(O)c2C(=O)C2=C(O)[C@]3(O)C(=O)C(C(N)=O)=C(O)[C@@H](N(C)C)[C@@H]3[C@@H](O)[C@@H]21` [doxycycline], the “Kidney counts (colony forming unit counts per gram of kidney tissue)” value was < 200 cfu/g.
